Test results: patent US20260256753A1, “USE OF AN OREXIN 2 RECEPTOR AGONIST FOR IMPROVING RESPIRATORY FUNCTION DURING SLEEP” (TAKEDA PHARMACEUTICAL COMPANY LIMITED, priority 2023, published 2026)

Key:
Type in all cases: cell-based
hypoglossal motoneurons = test: Electrophysiologic recording of hypoglossal motoneurons in rat medullary slices; settings: whole cell patch clamp, versus vehicle control, FIG. 3
From the text: (§1) Neonatal rats (postnatal day 1-10) were decapitated and the neuraxis was isolated in a chamber filled with oxygenated artificial cerebrospinal fluid solution (ACSF, in mM: NaCl 125, KCl 2.5, MgCl2 1, CaCl2 2, NaHCO3 25, NaH2PO4 1.25, glucose 25, pH 7.4). The cerebellum was removed, and the brainstem was mounted in the vibratome (VT 1000S; Leica, Milan, Italy) chamber filled with oxygenated gluconate cutting solution (in mM: Kgluconate 130, KCl 15, EGTA 0.2, HEPES 20, glucose 25, kynurenic acid 2, pH 7.4). Transverse medullary slices containing the pre-Bötzinger complex and hypoglossal nucleus were cut (400-600 μm thick). The slices were transferred at room temperature for 1 min in an oxygenated mannitol cutting solution (in mM: D-mannitol 225, glucose 25, KCl 2.5, NaH2PO4 1.25, NaHCO3 26, CaCl2 0.8, MgCl2 8, kynurenic acid 2, pH 7.4). Slices were then transferred in ACSF solution at 30° C. for 30 min and at room temperature for 30 min. At least 30 min prior to the start of recording, each slice was transferred in the recording solution in which the concentration of K+ was raised to 9 mM and that of Mg2+ was decreased to 0.5 mM to ensure the production of long-term and stable rhythm. […] Signals were acquired using Clampex 10.6 software (Axon, Molecular Devices, CA, USA) at a sampling rate of 10-20 kHz and filtered at 2-10 kHz using an 8-pole Bessel filter built within the software and analyzed using Clampfit 10.6 software (pClamp 10.6; Axon, Molecular Devices). […] Bursts were then automatically detected, and burst frequency was measured.
(§2) To evaluate the effects of vehicle (0.1% DMSO) on neuronal activities, after 5 min of stabilization, the neuronal activities under basal condition was recorded for 2-12 min, followed by recording in the presence of vehicle (0.1% DMSO) for 30 min. […]

phrenic motoneurons = test: Electrophysiologic recording of phrenic motoneurons in rat isolated brainstem-spinal cord preparations; settings: C3-5 ventral root, versus vehicle control, FIG. 2
Experimental: Neonatal (postnatal day 1-4) rats were decapitated, and the brainstem-spinal cord was dissected in a bath containing ACSF. The cerebellum and pons were ablated. At least 30 min prior to the start of recording, the tissue was transferred in the recording solution in which the concentration of K+ was raised to 5 mM and that of Mg2+ was decreased to 0.5 mM to ensure production of long-term and stable rhythm (modified ACSF, in mM: NaCl 125, MgCl2 0.5, KCl 5, CaCl2 1, NaHCO3 25, NaH2PO4 1.25, glucose 30, pH 7.4). The tissues were glued on coverslips and transferred to a recording chamber and continuously perfused at 27±2° C. with mACSF at a flow rate of 2.3±0.2 mL/min. Activity of phrenic motoneurons was measured in electrophysiological recordings from C3-5 ventral root, outputs of phrenic motoneurons (J. J. Greer, J. C. Smith, J. L. Feldman, Respiratory and locomotor patterns generated in the fetal rat brain stem-spinal cord in vitro, J Neurophysiol 67 (4) (1992) 996-9; J. C. Smith, J. J. Greer, G. S. Liu, J. L. Feldman, Neural mechanisms generating respiratory pattern in mammalian brain stem-spinal cord in vitro. I. Spatiotemporal patterns of motor and medullary neuron activity, J Neurophysiol 64 (4) (1990) 1149-69), using a glass suction electrode. […] The rectification and integration was used for quantification of the activities of phrenic motoneurons because the spontaneous bursts detected in voltage signals are consisting of multiple positive and negative voltages from baseline (T. Sugita, et al.). […] Bursts were then automatically detected, and burst frequency was measured.
To evaluate the effects of vehicle (0.1% DMSO) on neuronal activities, after 5 min of stabilization, the neuronal activities under basal condition were recorded for 2-20 min, followed by recording with vehicle (0.1% DMSO) for 30-40 min. […] As vehicle (0.1% DMSO) had no significant effects on burst frequency of phrenic neurons, potential of drugs was assessed under vehicle (0.1% DMSO). […]

[1] = tested on: neurons in the pre-Bötzinger complex; test: Electrophysiologic recording of neurons in the pre-Bötzinger complex in rat medullary slices; settings: whole cell patch clamp, versus vehicle (0.1% DMSO) control, FIG. 1
From the text: as §1, §2

CC(C)(O)C(=O)N1CC(F)(F)[C@H](NS(C)(=O)=O)[C@@H]1Cc1cccc(-c2cc(F)cc(F)c2)c1F [Compound C, N-{(2S,3R)-4,4-difluoro-1-(2-hydroxy-2-methylpropanoyl)-2-[(2,3′,5′-trifluoro[1,1′-biphenyl]-3-yl)methyl]pyrrolidin-3-yl}methanesulfonamide]
increased burst frequency: burst frequency of hypoglossal motoneurons (hypoglossal motoneurons) | burst frequency of phrenic motoneurons (phrenic motoneurons) | burst frequency in neurons in the pre-Bötzinger complex [1]

COC(=O)N1CCC[C@H](NS(C)(=O)=O)[C@@H]1CO[C@H]1CC[C@@H](c2ccccc2)CC1 (relative stereo) [Compound A, methyl(2R,3S)-3-((methylsulfonyl)amino)-2-(((cis-4-phenylcyclohexyl)oxy)methyl) piperidine-1-carboxylate]
increased burst frequency: burst frequency of hypoglossal motoneurons (hypoglossal motoneurons) | burst frequency of phrenic motoneurons (phrenic motoneurons) | burst frequency in neurons in the pre-Bötzinger complex [1]
